Source: ChEMBL document CHEMBL6109139, “Rational Design of the First Dual Agonist at Trace Amine-Associated Receptor 1 and 5-HT2C Receptors Based on Binding Pocket Similarity for the Treatment of Schizophrenia and Alzheimer's Disease-Related Psychosis” (J Med Chem, 2025)
Activity calls are given as the source filed them. The calls are words filed in the database; no cut-off is given here.

Assays:
[1] = target: GABA-A receptor; anion channel (Homo sapiens) (UniProt P14867+P47870+P18507+P28472+P48169+Q99928+Q9UN88+P34903+O00591+O14764+Q8N1C3+P18505+P78334+P47869+P31644+Q16445); experiment: Binding affinity to GABAA (unknown origin) at 10 uM by radioligand binding assay relative to control; type: protein-complex assay
Mus musculus [2] = experiment: Antidepressant activity in chronic social defeat stress induced depressive C57BL/6J mouse model assessed as increase in time of interaction zone administered intragastrically measured after 15 mins by open field test; type: functional, organism-based; settings: dose 0.5-2 mg/kg
[3] = target: Glutamate [NMDA] receptor (Homo sapiens) (UniProt Q05586+Q12879+Q13224+O15399+O60391+Q14957+Q8TCU5); experiment: Binding affinity to NMDA receptor (unknown origin) at 10 uM by radioligand binding assay relative to control; type: protein-complex assay
Cytochrome P450 1A2 = Cytochrome P450 1A2 (Homo sapiens, UniProt P05177); experiment: Inhibition of CYP1A2 in human liver microsomes in presence of NADPH by LC-MS/MS analysis; type: ADME, Microsome
[4] = Toxicity in female Sprague-Dawley rat assessed as corneal epithelial degeneration at 2.5 to 7.5 mg/kg, po administered once daily for 4 weeks and measured after 4 weeks; type: organism-based; settings: in vivo, 1344 h, dose 2.5-7.5 mg/kg, time 8 weeks
[5] = Inhibition of CYP2D6 in human liver microsomes in presence of NADPH by LC-MS/MS analysis; type: ADME, Microsome
[6] = target: Vasopressin V1a receptor (Homo sapiens) (UniProt P37288); experiment: Binding affinity to V1a receptor (unknown origin) at 10 uM by radioligand binding assay relative to control
Chain of Vasopressin V1a receptor (Homo sapiens) (P37288 whole entry, looked up): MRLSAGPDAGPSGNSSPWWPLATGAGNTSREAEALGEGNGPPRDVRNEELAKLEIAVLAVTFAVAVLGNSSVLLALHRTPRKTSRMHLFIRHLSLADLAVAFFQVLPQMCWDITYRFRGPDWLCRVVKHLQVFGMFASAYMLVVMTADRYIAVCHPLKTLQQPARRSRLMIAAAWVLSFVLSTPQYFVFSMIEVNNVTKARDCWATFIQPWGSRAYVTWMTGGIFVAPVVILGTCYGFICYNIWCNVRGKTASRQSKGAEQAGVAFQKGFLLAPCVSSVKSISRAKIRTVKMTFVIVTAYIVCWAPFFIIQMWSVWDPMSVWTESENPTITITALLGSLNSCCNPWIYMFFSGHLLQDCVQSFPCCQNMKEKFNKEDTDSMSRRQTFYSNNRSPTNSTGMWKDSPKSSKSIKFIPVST

[7] = Toxicity in male Sprague-Dawley rat assessed as minimal corneal neovascularization at 7.5 mg/kg, po administered once daily for 4 weeks; type: organism-based; settings: in vivo, 672 h
[8] = Toxicity in male Sprague-Dawley rat assessed as slow respiration at 7.5 mg/kg, po administered once daily for 4 weeks; type: organism-based; settings: in vivo, 672 h
[9] = target: Androgen receptor (Homo sapiens) (UniProt P10275); experiment: Binding affinity to AR (unknown origin) at 10 uM by radioligand binding assay relative to control
Cytochrome P450 2C8 = Cytochrome P450 2C8 (Homo sapiens, UniProt P10632); experiment: Inhibition of CYP2C8 in human liver microsomes in presence of NADPH by LC-MS/MS analysis; type: ADME, Microsome
Nav1.5 = Nav1.5 (Homo sapiens, UniProt Q14524); experiment: Binding affinity to human Nav1.5 receptor at 10 uM by radioligand binding assay relative to control; settings: read-out: Activity
[10] = Toxicity in female Sprague-Dawley rat assessed as change in organ weight at 2.5 to 7.5 mg/kg, po administered once daily for 4 weeks and measured after 4 weeks; type: organism-based; settings: in vivo, 1344 h, dose 2.5-7.5 mg/kg, time 8 weeks
[11] = target: Voltage-gated inwardly rectifying potassium channel KCNH2 (Homo sapiens, UniProt Q12809); experiment: Inhibition of human ERG expressed in CHO cells by whole cell patch clamp technique; type: toxicity, cell-based
Chain of Voltage-gated inwardly rectifying potassium channel KCNH2 (Q12809 whole entry): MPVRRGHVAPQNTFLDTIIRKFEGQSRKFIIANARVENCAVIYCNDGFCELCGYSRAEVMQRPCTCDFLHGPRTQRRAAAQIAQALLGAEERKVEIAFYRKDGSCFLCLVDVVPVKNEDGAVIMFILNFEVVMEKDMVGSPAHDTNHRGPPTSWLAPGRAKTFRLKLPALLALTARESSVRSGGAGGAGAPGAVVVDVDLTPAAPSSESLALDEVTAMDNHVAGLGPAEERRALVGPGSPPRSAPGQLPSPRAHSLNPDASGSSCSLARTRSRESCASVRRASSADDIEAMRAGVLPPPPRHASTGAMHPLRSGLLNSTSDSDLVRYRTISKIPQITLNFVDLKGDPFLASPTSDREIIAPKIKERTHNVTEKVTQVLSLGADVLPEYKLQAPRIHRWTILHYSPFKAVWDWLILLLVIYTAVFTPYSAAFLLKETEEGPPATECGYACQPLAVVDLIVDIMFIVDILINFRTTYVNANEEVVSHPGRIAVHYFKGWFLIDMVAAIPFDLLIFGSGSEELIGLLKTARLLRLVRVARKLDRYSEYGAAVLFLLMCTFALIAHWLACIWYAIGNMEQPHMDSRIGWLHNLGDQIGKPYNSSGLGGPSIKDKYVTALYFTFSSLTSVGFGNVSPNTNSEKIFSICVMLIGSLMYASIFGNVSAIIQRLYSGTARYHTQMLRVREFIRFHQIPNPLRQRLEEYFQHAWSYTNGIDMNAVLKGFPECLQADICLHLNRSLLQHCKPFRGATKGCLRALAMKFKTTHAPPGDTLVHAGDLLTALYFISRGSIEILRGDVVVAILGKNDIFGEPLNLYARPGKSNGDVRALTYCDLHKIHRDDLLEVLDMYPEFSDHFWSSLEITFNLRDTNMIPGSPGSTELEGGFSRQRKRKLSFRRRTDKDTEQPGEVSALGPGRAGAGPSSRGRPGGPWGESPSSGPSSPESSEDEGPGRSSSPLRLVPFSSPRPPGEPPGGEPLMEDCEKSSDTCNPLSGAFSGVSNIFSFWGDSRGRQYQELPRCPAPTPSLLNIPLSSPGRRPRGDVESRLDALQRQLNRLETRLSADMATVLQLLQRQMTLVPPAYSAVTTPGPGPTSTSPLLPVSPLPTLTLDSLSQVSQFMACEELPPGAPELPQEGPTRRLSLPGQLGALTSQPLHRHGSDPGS

[12] = Toxicity in male Sprague-Dawley rat assessed as change in clinical chemistry at 2.5 to 7.5 mg/kg, po administered once daily for 4 weeks and measured after 4 weeks; type: organism-based; settings: in vivo, 1344 h, dose 2.5-7.5 mg/kg, time 8 weeks
[13] = target: Neuronal acetylcholine receptor subunit alpha-7 (Homo sapiens) (UniProt P36544); experiment: Binding affinity to nACHR-alpha7 (unknown origin) at 10 uM by radioligand binding assay relative to control
Chain of Neuronal acetylcholine receptor subunit alpha-7 (Homo sapiens) (P36544 whole entry): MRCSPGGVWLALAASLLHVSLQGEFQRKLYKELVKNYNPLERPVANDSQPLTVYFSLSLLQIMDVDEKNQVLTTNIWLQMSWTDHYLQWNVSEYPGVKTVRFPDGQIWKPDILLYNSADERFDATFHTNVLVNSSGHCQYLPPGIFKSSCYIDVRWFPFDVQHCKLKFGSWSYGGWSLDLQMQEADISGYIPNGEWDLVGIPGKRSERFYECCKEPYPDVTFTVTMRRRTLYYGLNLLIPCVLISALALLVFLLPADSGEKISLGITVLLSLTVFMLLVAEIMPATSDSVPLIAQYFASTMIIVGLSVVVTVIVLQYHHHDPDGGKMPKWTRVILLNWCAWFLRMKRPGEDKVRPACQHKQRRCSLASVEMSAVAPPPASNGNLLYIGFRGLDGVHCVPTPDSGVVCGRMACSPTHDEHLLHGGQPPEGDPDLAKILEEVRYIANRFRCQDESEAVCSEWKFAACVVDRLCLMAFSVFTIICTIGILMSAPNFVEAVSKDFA

[14] = target: Beta-1 adrenergic receptor (Homo sapiens) (UniProt P08588); experiment: Binding affinity to beta 1 receptor (unknown origin) at 10 uM by radioligand binding assay relative to control
[15] = Toxicity in female Sprague-Dawley rat assessed as suppression of body weight gain at 7.5 mg/kg, po administered once daily for 4 weeks and measured weekly twice; type: organism-based; settings: in vivo, 672 h
Mus musculus [16] = experiment: Antipsychotic activity against MK-801 induced hyperlocomotion in male C57BL/6J mouse model at 3 mg/kg, IG […] followed by compound addition and measured after 30 mins by open field test; type: functional, organism-based
[17] = Toxicity in male Beagle dog assessed as change in body temperature at 0.75 to 2.5 mg/kg, IG administered once daily for 4 weeks and measured after 4 weeks; type: organism-based, Canis lupus familiaris; settings: in vivo, po, 1344 h, dose 0.75-2.5 mg/kg, time 8 weeks
[18] = Toxicity in female Beagle dog assessed as somnolence at 2.5 mg/kg, IG administered once daily for 4 weeks; type: organism-based, Canis lupus familiaris; settings: in vivo, po, 672 h
[19] = Metabolic stability in human liver microsomes assessed as intrinsic clearance at 1 uM incubated for 60 mins by LC-MS/MS analysis; type: ADME, Microsome; settings: read-out: CLH
[20] = Toxicity in female Sprague-Dawley rat assessed as slow respiration at 7.5 mg/kg, po administered once daily for 4 weeks and measured after 4 weeks; type: organism-based; settings: in vivo, 1344 h, time 8 weeks
[21] = target: Prostaglandin G/H synthase 2 (Homo sapiens) (UniProt P35354); experiment: Binding affinity to COX2 (unknown origin) at 10 uM by radioligand binding assay relative to control
Chain of Prostaglandin G/H synthase 2 (Homo sapiens) (P35354 whole entry): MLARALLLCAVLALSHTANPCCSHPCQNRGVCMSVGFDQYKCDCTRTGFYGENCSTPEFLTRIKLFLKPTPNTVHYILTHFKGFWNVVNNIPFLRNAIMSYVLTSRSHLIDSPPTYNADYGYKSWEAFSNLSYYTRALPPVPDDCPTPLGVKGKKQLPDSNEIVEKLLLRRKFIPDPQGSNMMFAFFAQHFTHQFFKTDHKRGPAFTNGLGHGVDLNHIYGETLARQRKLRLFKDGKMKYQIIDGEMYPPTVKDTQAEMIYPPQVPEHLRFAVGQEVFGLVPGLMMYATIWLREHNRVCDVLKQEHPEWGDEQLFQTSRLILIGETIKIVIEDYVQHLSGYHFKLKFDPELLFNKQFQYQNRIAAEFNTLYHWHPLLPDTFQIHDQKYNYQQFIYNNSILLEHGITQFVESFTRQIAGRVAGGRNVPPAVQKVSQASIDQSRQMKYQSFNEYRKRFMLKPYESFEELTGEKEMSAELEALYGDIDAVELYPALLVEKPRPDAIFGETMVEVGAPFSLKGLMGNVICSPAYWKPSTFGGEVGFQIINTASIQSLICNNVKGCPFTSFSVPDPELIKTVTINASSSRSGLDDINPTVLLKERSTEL

[22] = Cardiotoxicity in conscious cynomolgus monkey assessed as good general health at 3.125 to 12.5 mg/kg, IG; type: toxicity, organism-based, Macaca fascicularis; settings: in vivo, po, dose 3.125-12.5 mg/kg
[23] = Toxicity in male Sprague-Dawley rat assessed as suppression of food consumption at 7.5 mg/kg, po administered once daily for 4 weeks and measured weekly twice; type: organism-based; settings: in vivo, 672 h
[24] = target: Delta-type opioid receptor (Homo sapiens) (UniProt P41143); experiment: Binding affinity to op-delta receptor (unknown origin) at 10 uM by radioligand binding assay relative to control
Chain of Delta-type opioid receptor (Homo sapiens) (P41143 whole entry): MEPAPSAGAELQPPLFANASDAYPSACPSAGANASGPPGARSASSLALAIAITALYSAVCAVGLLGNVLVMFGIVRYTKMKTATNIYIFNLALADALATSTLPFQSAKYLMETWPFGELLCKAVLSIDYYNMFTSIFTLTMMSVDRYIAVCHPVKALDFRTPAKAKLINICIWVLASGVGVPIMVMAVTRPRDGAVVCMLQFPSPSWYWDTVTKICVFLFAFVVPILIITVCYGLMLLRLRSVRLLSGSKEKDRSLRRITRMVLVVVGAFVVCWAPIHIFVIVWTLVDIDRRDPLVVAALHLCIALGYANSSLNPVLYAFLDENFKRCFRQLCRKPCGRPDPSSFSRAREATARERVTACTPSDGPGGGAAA

[25] = target: Muscarinic acetylcholine receptor M1 (Homo sapiens) (UniProt P11229); experiment: Binding affinity to M1 receptor (unknown origin) at 10 uM by radioligand binding assay relative to control
Chain of Muscarinic acetylcholine receptor M1 (Homo sapiens) (P11229 whole entry): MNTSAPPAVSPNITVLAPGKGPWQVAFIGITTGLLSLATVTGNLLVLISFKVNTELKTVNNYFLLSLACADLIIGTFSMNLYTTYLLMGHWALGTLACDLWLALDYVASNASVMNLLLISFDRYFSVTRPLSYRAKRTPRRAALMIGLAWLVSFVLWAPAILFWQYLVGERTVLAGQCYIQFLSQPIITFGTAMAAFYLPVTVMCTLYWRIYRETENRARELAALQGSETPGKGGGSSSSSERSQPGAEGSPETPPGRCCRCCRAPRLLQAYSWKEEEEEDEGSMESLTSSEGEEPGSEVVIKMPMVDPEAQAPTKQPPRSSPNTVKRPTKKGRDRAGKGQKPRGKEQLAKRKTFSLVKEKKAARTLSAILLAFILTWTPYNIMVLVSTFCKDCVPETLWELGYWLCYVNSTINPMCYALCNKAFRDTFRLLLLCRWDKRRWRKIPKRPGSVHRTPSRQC

[26] = target: T1, Trace amine-associated receptor 1 (Homo sapiens, UniProt Q96RJ0); experiment: Agonist activity at human TAAR1 extracted from CHO-K1 cell membrane coexpressing AGTRL1/Gi by cAMP assay; type: functional, cell membranes
T1 sequence (Q96RJ0 whole entry): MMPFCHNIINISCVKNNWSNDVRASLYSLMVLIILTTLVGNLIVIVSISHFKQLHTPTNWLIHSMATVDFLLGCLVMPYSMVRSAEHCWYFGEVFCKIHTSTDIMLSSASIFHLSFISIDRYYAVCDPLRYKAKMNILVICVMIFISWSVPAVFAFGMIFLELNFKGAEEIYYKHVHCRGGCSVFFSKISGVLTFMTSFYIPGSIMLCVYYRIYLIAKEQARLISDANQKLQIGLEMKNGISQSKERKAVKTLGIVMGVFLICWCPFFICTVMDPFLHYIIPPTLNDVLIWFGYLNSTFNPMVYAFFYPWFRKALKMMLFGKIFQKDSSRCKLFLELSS

[27] = target: 5-hydroxytryptamine receptor 1A (Homo sapiens) (UniProt P08908); experiment: Agonist activity at human 5-HT1A expressed in CHO cells coexpressing Galpha15 by measuring maximum efficacy at 2 uM by FLIPR calcium assay relative to control; type: functional, cell-based; settings: filed as agonist
Chain of 5-hydroxytryptamine receptor 1A (Homo sapiens) (P08908 whole entry): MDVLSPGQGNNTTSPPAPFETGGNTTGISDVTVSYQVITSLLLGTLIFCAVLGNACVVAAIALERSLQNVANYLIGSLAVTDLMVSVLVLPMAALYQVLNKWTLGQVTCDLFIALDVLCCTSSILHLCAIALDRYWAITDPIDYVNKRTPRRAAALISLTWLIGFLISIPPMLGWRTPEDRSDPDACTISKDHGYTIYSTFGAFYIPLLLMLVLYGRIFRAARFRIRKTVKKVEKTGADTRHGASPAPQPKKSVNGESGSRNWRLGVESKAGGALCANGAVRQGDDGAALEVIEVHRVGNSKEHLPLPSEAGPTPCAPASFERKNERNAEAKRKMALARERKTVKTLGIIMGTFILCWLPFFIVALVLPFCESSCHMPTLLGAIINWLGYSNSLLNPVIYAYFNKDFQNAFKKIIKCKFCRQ

[28] = target: Sodium-dependent dopamine transporter (Homo sapiens) (UniProt Q01959); experiment: Binding affinity to DAT receptor (unknown origin) at 10 uM by radioligand binding assay relative to control
Chain of Sodium-dependent dopamine transporter (Homo sapiens) (Q01959 whole entry): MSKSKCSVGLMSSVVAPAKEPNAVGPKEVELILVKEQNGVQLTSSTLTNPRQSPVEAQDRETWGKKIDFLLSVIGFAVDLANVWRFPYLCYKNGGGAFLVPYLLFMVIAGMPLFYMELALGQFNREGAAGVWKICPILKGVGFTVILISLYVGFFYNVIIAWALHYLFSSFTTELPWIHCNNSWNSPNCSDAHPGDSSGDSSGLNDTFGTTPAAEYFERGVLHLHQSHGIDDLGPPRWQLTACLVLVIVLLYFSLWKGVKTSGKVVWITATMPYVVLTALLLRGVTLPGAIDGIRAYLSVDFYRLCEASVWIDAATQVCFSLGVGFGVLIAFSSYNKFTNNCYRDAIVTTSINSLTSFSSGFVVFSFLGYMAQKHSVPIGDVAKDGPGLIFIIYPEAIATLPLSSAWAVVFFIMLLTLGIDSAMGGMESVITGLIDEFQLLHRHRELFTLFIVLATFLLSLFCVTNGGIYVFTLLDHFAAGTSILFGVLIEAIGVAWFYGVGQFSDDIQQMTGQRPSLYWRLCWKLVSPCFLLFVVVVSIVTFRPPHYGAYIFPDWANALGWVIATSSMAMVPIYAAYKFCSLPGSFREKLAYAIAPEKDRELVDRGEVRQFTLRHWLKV

Question: Which Activity [1] does the source give for `c1cc2c(s1)[C@@H]1CNCCN1CC2` here?
Answer: -21.4%

Question: What about the Activity (Mus musculus [2]) of the same molecule?
Answer: Dose-dependent-effect

Question: What about the Activity [3] of the same molecule?
Answer: 4.53%

Question: What about the IC50 (Cytochrome P450 1A2) of the same molecule?
Answer: > 50 µM

Question: What about the Activity [4] of the same molecule?
Answer: Non-toxic

Question: What about the IC50 [5] of the same molecule?
Answer: > 50 µM

Question: What about the Activity [6] of the same molecule?
Answer: 6.93%

Question: And the Activity [7]?
Answer: Toxic

Question: What about the Activity [8] of the same molecule?
Answer: Toxic

Question: And the Activity [9]?
Answer: -5.37%

Question: What about the IC50 (Cytochrome P450 2C8) of the same molecule?
Answer: > 50 µM

Question: And the activity at 10 µM (Nav1.5)?
Answer: 13.4%

Question: What about the Activity [10] of the same molecule?
Answer: Non-toxic

Question: What about the IC50 [11] of the same molecule?
Answer: > 30 µM

Question: What about the Activity [12] of the same molecule?
Answer: Non-toxic

Question: And the Activity [13]?
Answer: 5.02%

Question: What about the Activity [14] of the same molecule?
Answer: -0.11%

Question: What about the Activity [15] of the same molecule?
Answer: Toxic

Question: And the Activity (Mus musculus [16])?
Answer: inactive

Question: And the Activity [17]?
Answer: Non-toxic

Question: What about the Activity [18] of the same molecule?
Answer: Toxic

Question: What about the CLint scaled at 1 µM [19] of the same molecule?
Answer: 6.8 mL/min/kg

Question: And the Activity [20]?
Answer: Non-toxic

Question: And the Activity [21]?
Answer: 48.5%

Question: What about the Activity [22] of the same molecule?
Answer: Non-toxic

Question: And the Activity [23]?
Answer: Toxic

Question: And the Activity [24]?
Answer: 15.4%

Question: And the Activity [25]?
Answer: 26.5%

Question: And the EC50 [26]?
Answer: 0.022 µM

Question: What about the Emax [27] of the same molecule?
Answer: 48.3%

Question: What about the Activity [28] of the same molecule?
Answer: -6.53%
